Assay results as given in publication PMC7719179, “Small molecule inhibition of Dynamin-dependent endocytosis targets multiple niche signals and impairs leukemia stem cells” (Nature Communications, 2020).
Where “and” joins values, the source holds several entries; their conditions need not be identical. Identical values can stand only once.

Tests used:
[1] = tested on: IL-7R at the surface of Ba/F3-IL7R cells; assay: Surface expression of IL-7R on Ba/F3-IL7R cells (flow cytometry); type: cell-based, murine; conditions: replicates
Method: Ba/F3 cells (kindly provided by a person from The Walter and Eliza Hall Institute of Medical Research) were infected with pMIG-R1/Il7r retroviral supernatants produced in 293T cells, and transduced cells were sorted with a BD Influx (BD Australia) and selected by culture in medium supplemented with 5 ng/mL rmIL-7 (#217-17, Pepro Tech, Rocky Hill NJ, USA) for 7 days. Ba/F3 cells stably expressing Il7r (Ba/F3-IL7R) were infected with TxTCPVIR-Stat5-CA retroviral supernatants produced in 293T. Cell sorting was performed with a BD Influx and transduced cells were treated with doxycycline for 48 h to induce the expression of the Stat5-CA-T2A-mCherry fusion protein.
Flow cytometry analyses were performed as previously described[10],[86] on single-cell suspensions stained using BD Pharmingen antibodies (BD Australia, North Ryde NSW, Australia) against mouse CD4 (RM4-5), CD8 (53-6.7), CD25 (PC61.5), CD44 (IM7), CD45.1 (A20), CD45.2 (104), Thy1.2 (53-2.1; #561616), TCRβ (H57-597), CD117 (ACK45), CD135 (A2F10.1), CD150 (TC15-12F12.2; #562373), B220 (RA3-6B2; #563708), CD3 (145-2C11; #563004), CD19 (ID3; #557655), Gr-1 (RB6-8C5; #563299 and #565033), CD11b (M1/70; #563015 and #560455), Ter119 (Ter119; #565523 and #557909), Sca-1 (D7; #558160) and an eBioscience antibody (eBioscience, Invitrogen) against mouse NOTCH1 (22E5). DN3 populations and IL-7R were stained using BioLegend antibodies (Australian Biosearch, Balcatta WA, Australia) against mouse CD28 (E18) and CD127 (A7R34), respectively. Apoptosis was measured using an antibody against AnnexinV (#556420, BD Australia) and the […] Sytox Blue (BD Australia) following the manufacturer’s protocol.
For in vitro IL-7 stimulation assays, cells were starved in serum-free DMEM at 37 °C, then incubated with either vehicle or Dynole 34-2 or Ruxolitinib (INCB018424; #S1378, Selleckchem), or DAPT (GSI-IX; #S2215, Selleckchem) resuspended in DMSO for 1 h. Thymocytes were subsequently stimulated with 25 ng/mL IL-7 at 37 °C for 20 min and washed twice using cold PBS 1×. Cells were incubated with 25 ng/mL Rat IgG (Sigma-Aldrich Pty Ltd, Castle Hill NSW, Australia) and with a PE-conjugated antibody for detection of IL-7R (CD127) for 1 h on ice, as described in the FACS analysis section. PE-conjugated isotype was used as negative control. Cells were washed twice, fixed and phosphoflow analysis performed as described in the FACS analysis section. The analysis was performed in triplicate and the mean fluorescence intensity (MFI) observed without stimulation was reported as 100%.

[2] = tested on: AML01-307 and AML18 patient-derived xenografts; assay: Survival (Kaplan-Meier) and leukemia growth delay in AML01-307 and AML18 xenograft recipients; type: in vivo, human; conditions: PDX AML01-307
Method: Patient-derived xenograft models were established as previously described[97],[98]. All experiments were pre-approved by the Human Research Ethics Committee of the University of New South Wales (UNSW), the UNSW Animal Care and Ethics Committee, the Alfred Health Human Ethics Committee and the AMREP Animal Ethics Committee. For transplantation assays, 10^6 splenocytes harvested from successfully engrafted primary human ETP-ALL or T-ALL xenografts were injected into nonobese diabetic/severe combined immunodeficient (NOD.Cg-Prkdc^scid, also termed NOD/SCID) or NOD/SCID/Il2rg^tm1wjl/SzJ (NSG) mice[99]. Moreover, 1.5 × 10^6 cells splenocytes harvested from successfully engrafted patient-derived AML xenografts were injected into nonobese diabetic/severe immunodeficient (NOD.Cg-Rag1^tm1MomIl2rg^tm1wjl/SzJ, also termed NRG) mice expressing human IL-3, human GM-CSF and human SCF from the SGM3 triple transgene (NRGS)[100]. Engraftment into recipients was monitored by FACS analysis of peripheral blood as previously described. […] Both males and females were used. […] Kaplan–Meier survival and statistical analyses were performed using GraphPad Prism. 6.0 software (GraphPad Software, Inc.). […]

[3] = tested on: IL-7R internalization in Ba/F3-IL7R cells; assay: Colocalization of IL-7R with clathrin and Rab5 after IL-7 stimulation (immunofluorescence); type: cell-based, murine; conditions: Ba/F3-IL7R cells after IL-7 stimulation, vs vehicle; result in words
Method: For dynamic analysis of IL-7R internalization, 1 × 10^5 Ba/F3-IL-7R cells were incubated with Phycoerythrin (PE)-conjugated α-CD127 (A7R34, BioLegend) for 30 min on ice, washed twice in cold PBS 1×, resuspended in serum-free Dulbecco’s modified Eagle’s medium (DMEM) and stimulated with 50 ng/mL IL-7 at 37 °C for the indicated intervals. Cells were fixed, permeabilized and incubated with either α-clathrin (ab21679, Abcam Australia) or α-Rab5 (ab18211, Abcam Australia), as previously described. Washed cells were incubated in permeabilization buffer with donkey Alexa Fluor 488-conjugated anti-rabbit secondary antibody (A-21206, Molecular Probes, Life Technologies) for 1 h on ice. Cells were washed, incubated with 1 ng/mL 4′,6-diamidino-2-phenylindole for 15 min, washed twice and mounted using Mowiol mounting medium (81381, Sigma-Aldrich Pty Ltd, Castle Hill, NSW). For each independent experiment, at least 50 different fields of view were collected for blinded quantification, for each time point. All images were acquired using a Nikon A1r Plus SI inverted confocal microscope (Nikon Australia, Rhodes, NSW) using a Plan Apo ×60 oil objective.

[4] = tested on: normal hematopoietic cells of WT mice; assay: Normal hematopoiesis in treated wild-type mice (thymus and bone marrow populations); type: in vivo

## CCCCCCCCNC(=O)C(C#N)=Cc1cn(CCCN(C)C)c2ccccc12 [Dynole 34-2, 2-Cyano-N-octyl-3-(1-(3-dimethylaminopropyl)-1H-indol-3-yl)-acrylamide]
[1]; +IL-7, Dynole 34-2 0.2 µM
  IL-7R (MFI): 6459 MFI and 6071 MFI and 5354 MFI and 5835 MFI and 6042 MFI and 5962 MFI
[1]; +IL-7, Dynole 34-2 1.0 µM
  IL-7R (MFI): 6945 MFI and 7094 MFI and 7005 MFI and 6255 MFI and 6778 MFI and 5501 MFI
[1]; +IL-7, Dynole 34-2 5.0 µM
  IL-7R (MFI): 8484 MFI and 8092 MFI and 6662 MFI and 7158 MFI and 8274 MFI and 7535 MFI
[1]; +IL-7, Dynole 34-2 10.0 µM
  IL-7R (MFI): 7753 MFI and 8175 MFI and 8231 MFI and 7570 MFI
[1]; +IL-7, Dynole 34-2 25.0 µM
  IL-7R (MFI): 9215 MFI and 8603 MFI and 7481 MFI and 8221 MFI and 8215 MFI and 7582 MFI
[2]
  Time to leukemia: 7 weeks and 8.71 weeks and 8.57 weeks and 7.57 weeks and 8.43 weeks
[3]
  colocalization of IL-7R and clathrin: no significant difference
  colocalization of IL-7R with Rab5: markedly reduced
[4]; Supplementary Figure 5a-b
  Absolute numbers in the thymus: DN: 6020000 and 5580000 and 7110000
  Absolute numbers in the thymus: DN1: 511000 and 452000 and 707000
  Absolute numbers in the thymus: DN2: 47600 and 47100 and 78500
  Absolute numbers in the thymus: DN4: 3000000 and 2950000 and 3730000
  Absolute numbers in the thymus: DP: 102000000 and 86500000 and 114000000
  Absolute numbers in the thymus: SP: 11300000 and 9900000 and 12100000
[4]; Supplementary Figure 5c-d
  Absolute numbers in the bone marrow: B cells: 6210000 and 6630000 and 5010000
  Absolute numbers in the bone marrow: MPP2: 32800 and 19900 and 19000
  Absolute numbers in the bone marrow: MPP3: 31000 and 22000 and 23000
  Absolute numbers in the bone marrow: MPP4: 146000 and 93900 and 87200
  Absolute numbers in the bone marrow: Myeloid cells: 9680000 and 8860000 and 9360000
  Absolute numbers in the bone marrow: T cells: 1060000 and 911000 and 1020000
[4]; non-tumour-bearing mice, result in words
  effect on differentiated and progenitor cells in thymus and bone marrow: no detrimental effect
